Common to all, as to assay type: cell-based
One data set has as its system DENV-4 strain H241. In words: Tetravalent RT-qPCR assay Protocol A, serotype 4 H241. The settings on record: Dengue virus, DENV4, 72 h; Protocol A, RT-qPCR serotype 4 H241, Vero cells, day 3; read-out: EC50. As to the method:
(§1) The antiviral activity of the compounds of the invention was tested against DENV-1 strain TC974#666 (NCPV; Table 6), DENV-2 strain 16681 (Table 7), DENV-3 strain H87 (NCPV; Table 8) and DENV-4 strains H241 (NCPV; Table 9A) and SG/06K2270DK1/2005 (Eden; Table 9B) in a RT-qPCR assay. Therefore, Vero cells were infected with either DENV-1, or -2, or -3, or -4 in the presence or absence of test compounds. At day 3 post-infection, the cells were lysed and cell lysates were used to prepare cDNA of both a viral target (the 3′UTR of DENV; Table 2) and a cellular reference gene (β-actin, Table 2). Subsequently, a duplex real time PCR was performed on a Lightcycler480 instrument. The generated Cp value is inversely proportional to the amount of RNA expression of these targets. Inhibition of DENV replication by test compound results in a shift of Cp's for the 3′UTR gene. On the other hand, if a test compound is toxic to the cells, a similar effect on β-actin expression will be observed. The comparative ΔΔCp method is used to calculate EC50, which is based on the relative gene expression of the target gene (3′UTR) normalized with the cellular housekeeping gene (β-actin).
(§2) The culture medium consisted of minimal essential medium supplemented with 2% of heat-inactivated fetal calf serum, 0.04% gentamycin (50 mg/mL) and 2 mM of L-glutamine. Vero cells, obtained from ECACC, were suspended in culture medium and 75 μL/well was added in 96-well plates (10000 cells/well), which already contain the antiviral compounds. […] In addition, each plate contains wells which are assigned as virus controls (containing cells and virus in the absence of compound) and cell controls (containing cells in the absence of virus and compound). Once the cells were added in the plates, the plates were incubated in a fully humidified incubator (37° C., 5% CO2) until the next day. Dengue viruses serotype-1, 2, 3 and 4 were diluted in order to obtain a Cp of ˜22-24 in the assay. Therefore, 25 μL of virus suspension was added to all the wells containing test compound and to the wells assigned as virus control. In parallel, 25 μL of culture medium was added to the cell controls. Next, the plates were incubated for 3 days in a fully humidified incubator (37° C., 5% CO2). After 3 days, the supernatant was removed from the wells and the cells were washed twice with ice-cold PBS (˜100 μL). The cell pellets within the 96-well plates were stored at −80° C. for at least 1 day. Next, RNA was extracted using the Cells-to-CT™ lysis kit, according to the manufacturer's guideline (Life Technologies). The cell lysates can be stored at −80° C. or immediately used in the reverse transcription step.
(§3) In preparation of the reverse transcription step, mix A (table 3A) was prepared and 7.57 μL/well was dispensed in a 96-well plate. After addition of 5 μL of the cell lysates, a five minute denaturation step at 75° C. was performed (table 3B). Afterwards, 7.43 μL of mix B was added (table 3C) and the reverse transcription step was initiated (table 3D) to generate cDNA.
(§4) Finally, a RT-qPCR mix was prepared, mix C (table 4A), and 22.02 μL/well was dispensed in 96-well LightCycler qPCR plates to which 3 μL of cDNA was added and the qPCR was performed according to the conditions in table 4B on a LightCycler 480.
(§5) Using the LightCycler software and an in-house LIMS system, dose response curves for each compound were calculated and the half maximal effective concentration (EC50) and the half maximal cytotoxic concentration (CC50) were determined.

The next data set in a line: in vitro. The settings on record: African green monkey, CC50. As to the method:
as §1, §2, §5

A further data set deals with DENV-2 strain NGC. In words: Tetravalent RT-qPCR assay Protocol B, serotype 2. The settings on record: Dengue virus, DENV2, 96 h, RT-qPCR serotype 2 NGC-Tongalike, 4 days. As to the method: The antiviral activity of the compounds of the invention was tested against DENV-1 strain Djibouti strain (D1/H/IMTSSA/98/606; Table 6), DENV-2 strain NGC (Table 7), DENV-3 strain H87 (Table 8) and DENV-4 strain SG/06K2270DK1/2005 (Table 9B) in a RT-qPCR assay. Vero-B or Vero-M cells (5×10^4) were seeded in 96-well plates. One day later, culture medium was replaced with 100 μL assay medium containing a 2×, 3× or 5× serial dilution of the compound (concentration range: 50 μg/mL-0.00038 μg/mL, 50 μg/mL-0.0076 μg/mL, and 50 μg/mL-0.00013 μg/mL, respectively) and 100 μL of dengue virus inoculum (DENV). Following a 2 hour incubation period, the cell monolayer was washed 3 times with assay medium to remove residual, non-adsorbed virus and cultures were further incubated for either 4 days (DENV-2 NGC) or 7 days (DENV-1 Djibouti strain D1/H/IMTSSA/98/606, DENV-3 strain H87 prototype, DENV-4 strain H241, and DENV-4 strain EDEN) in the presence of the inhibitor. Supernatant was harvested and viral RNA load was determined by real-time quantitative RT-PCR. The 50% effective concentration (EC50), which is defined as the compound concentration that is required to inhibit viral RNA replication by 50%, was determined using logarithmic interpolation.
RNA was isolated from 100 μL (or in some circumstances 150 μL) supernatant with the NucleoSpin 96 Virus kit (Filter Service, Duren, Germany) as described by the manufacturer. The sequences of the TaqMan primers (DENV-For, DENV-Rev; Table 5) and TaqMan probes (DENV-Probe Table 5) were selected from non-structural gene 3 (NS3) or NS5, of the respective flaviviruses using Primer Express software (version 2.0; Applied Biosystems, Lennik, Belgium). The TaqMan probe was fluorescently labelled with 6-carboxyfluorescein (FAM) at the 5′ end as the reporter dye, and with minor groove binder (MGB) at the 3′ end as the quencher (Table 5). One-step, quantitative RT-PCR was performed in a total volume of 25 μL, containing 13.9375 μL H2O, 6.25 μL master mix (Eurogentec, Seraing, Belgium), 0.375 μL forward primer, 0.375 μL reverse primer, 1 μL probe, 0.0625 μL reverse transcriptase (Eurogentec) and 3 μL sample. RT-PCR was performed using the ABI 7500 Fast Real-Time PCR System (Applied Biosystems, Branchburg, New Jersey, USA) using the following conditions: 30 min at 48° C. and 10 min at 95° C., followed by 40 cycles of 15 s at 95° C. and 1 min at 60° C. The data was analyzed using the ABI PRISM 7500 SDS software (version 1.3.1; Applied Biosystems). For absolute quantification, standard curves were generated using 10-fold dilutions of template preparations of known concentrations.

In another data set the test system is DENV-2 strain 16681. In words: Tetravalent RT-qPCR assay Protocol A, serotype 2. The following applies: Dengue virus, DENV2, 72 h; Protocol A, RT-qPCR serotype 2 16681, Vero cells, day 3; read-out: EC50. As for the experimental part:
as §1, §2, §3, §4, §5

This is an account of results in patent US12172959B2, “Mono- or di-substituted indole derivatives as dengue viral replication inhibitors” (priority 2015, dated 2024).

Consider `COc1cc(NC(C(=O)c2c[nH]c3cc(F)ccc23)c2ccc(Cl)cc2OC)cc(S(C)(=O)=O)c1` (single isomer, unassigned) [Compound 1A, 2-(4-chloro-2-methoxyphenyl)-1-(6-fluoro-1H-indol-3-yl)-2-((3-methoxy-5-(methylsulfonyl)phenyl)amino)ethanone], for which the EC50 with DENV-4 strain H241 is 93 nM; in the data set on DENV-2 strain NGC it was < 0.27 nM; in the data set with DENV-2 strain 16681, 0.28 nM. This compound also registered a CC50 at 3 days in “in vitro” of 5000 nM.
The matching figures for `COc1cc(NC(C(=O)c2c[nH]c3c(C)c(F)ccc23)c2ccc(Cl)cc2OC)cc(S(C)(=O)=O)c1` (single isomer, unassigned) [Compound 2A, 2-(4-chloro-2-methoxyphenyl)-1-(6-fluoro-7-methyl-1H-indol-3-yl)-2-((3-methoxy-5-(methylsulfonyl)phenyl)amino)ethanone]: 83 nM, < 0.24 nM, 0.24 nM and 5300 nM.
For the compound `COc1cc(NC(C(=O)c2c[nH]c3cc(OC)c(C)cc23)c2ccc(Cl)cc2OC)cc(S(C)(=O)=O)c1` (single isomer, unassigned) [Compound 4A, 2-(4-chloro-2-methoxyphenyl)-2-((3-methoxy-5-(methyl-sulfonyl)phenyl)amino)-1-(6-methoxy-5-methyl-1H-indol-3-yl)ethanone], the EC50 is 53 nM in the data set on DENV-4 strain H241, 0.32 nM in the data set on DENV-2 strain NGC and 0.2 nM in the data set with DENV-2 strain 16681.
Take `COc1cc(NC(C(=O)c2c[nH]c3cc(OC)c(F)cc23)c2ccc(Cl)cc2OC)cc(S(C)(=O)=O)c1` (single isomer, unassigned) [Compound 5A, 2-(4-chloro-2-methoxyphenyl)-1-(5-fluoro-6-methoxy-1H-indol-3-yl)-2-((3-methoxy-5-(methylsulfonyl)phenyl)amino)ethanone]: the EC50 was 100 nM with DENV-4 strain H241, < 0.23 nM in the data set on DENV-2 strain NGC and 0.34 nM in the data set on DENV-2 strain 16681. The compound further displayed a CC50 at 3 days in the data set “in vitro” of 5200 nM.
For `COc1cc(NC(C(=O)c2c[nH]c3c(C)c(OC)ccc23)c2ccc(Cl)cc2OC)cc(S(C)(=O)=O)c1` (single isomer, unassigned) [Compound 6A, 2-(4-chloro-2-methoxyphenyl)-2-((3-methoxy-5-(methyl-sulfonyl)phenyl)amino)-1-(6-methoxy-7-methyl-1H-indol-3-yl)ethanone], in that order: 95 nM, < 0.24 nM, 0.11 nM and > 10000 nM.
